{"source": "patent US9474730B2", "about": "“Methods and compositions for use with K-ras mediated disorders” (Board of Regents of the University of Texas System, priority 2012, dated 2016)", "key": {"[1]": {"tested_on": "MDCK and BHK cells expressing oncogenic mutant H-RasG12V", "experiment": "Signaling in cells expressing oncogenic H-RasG12V, Western blotting", "type": "cell-based, canine (MDCK), hamster (BHK)", "settings": "to the similar extent as in K-rasG12V cells, 6 μg/mL, 48 h", "description": "FIG. 7: Illustrates that H-rasG12V signals through endogenous K-ras: BHK cells stably expressing H-rasG12V were treated with vehicle or fendiline HCl (6 μg/mL) for 48 h. (A) ppMEK and ppERK in soluble protein fraction and pAkt levels in membrane protein fraction were measured by quantitative Western blotting. A representative blots are shown. (B) BHK cells stably expressing H-rasG12V were transfected with K-ras siRNA encoding plasmid. 24 h after transfection, cells were treated with vehicle or fendiline HCl (6 μg/mL) for a further 48 h. Whole cell lysates were prepared from serum starved cells and analyzed by quantitative Western blotting. Representative Western blots are shown. Data is shown as mean±SEM from 6 independent experiments. […] (*=p<0.05), and experimentation was performed in accordance with principles described herein;\n(§1) Preparation of whole-cell lysates: cells were lysed in Buffer B (50 mM Tris [pH 7.5], 75 mM NaCl, 25 mM NaF, 5 mM MgCl2, 5 mM EGTA, 1 mM dithiothreitol, 100 μM NaVO4, 1% Nonidet P-40 plus protease inhibitors). Cellular fractionation: cells were incubated in Buffer A (10 mm Tris-HCl, pH 7.5, 25 mm NaF, 5 mm MgCl2, 1 mm EGTA, 1 mm dithiothreitol, 100 μm NaVO4 plus protease inhibitors) for 30 minutes on ice and lysed by passing through a 27 G needle 30 times. The post nuclear supernatant was centrifuged at 100,000 g for 30 minutes and the membrane pellet was resuspended in Buffer A containing 1% Triton X-100.\n(§2) Quantification of intensities was performed using FluorChemQ software."}, "[2]": {"molecular_target": "T1, mGFP-tagged H-rasG12V in BHK cells (Homo sapiens, UniProt P01112, G12V)", "T1 construct": "BHK cells expressing GFP-tagged full length constitutively active Ras (G12V) proteins; expressed in transfected cells", "experiment": "Immuno-electron microscopy and spatial analysis of plasma membrane sheets, H-rasG12V", "type": "cell-based, hamster", "settings": "6 μg/mL, 48 h", "description": "(§3) FIG. 4: Illustrates that fendiline HCl alters plasma membrane association and nanoclustering of K-ras: Plasma membrane sheets were generated from cells expressing GFP-K-rasG12V or GFP-H-rasG12V. Cells were treated with vehicle or fendiline HCl (6 μg/mL) for 48 h. Plasma membrane sheets were labeled with anti-GFP antibody conjugated to 4.5 nm gold. The plasma membrane sheets were imaged in an electron microscope and the spatial distribution of the gold labeling was analyzed using Ripley's K-function. Maximum L(r)-r values above the 99% confidence interval (C.I.) for complete spatial randomness (CSR) indicate clustering at that value of r. […] Significant differences from the control pattern for fendiline treated cells were assessed using bootstrap tests, wherein experimentation was performed in accordance with principles described herein;\n(§4) Immuno-EM and spatial analysis were conducted exactly as described previously (Hancock, J. F., and Prior, I. A. (2005). Electron microscopic imaging of Ras signaling domains. Methods 37, 165-172; Prior, I. A., Muncke, C., Parton, R. G., and Hancock, J. F. (2003). Direct visualization of Ras proteins in spatially distinct cell surface microdomains. J Cell Biol 160, 165-170). […] Intact 1-μm^2 areas of the plasma membrane sheet were identified using ImageJ, and the x-y coordinates of the gold particles were determined. […]"}, "[3]": {"tested_on": "human oral cancer cells, PC3 prostate cancer cells and MDCK cells", "settings": "cited from earlier work"}, "[4]": {"tested_on": "BHK cells stably expressing K-rasG12V", "experiment": "Signaling downstream of oncogenic K-ras by quantitative Western blotting", "type": "cell-based, hamster", "settings": "6 μg/mL, 48 h, K-rasG12V BHK cells", "description": "FIG. 5: Illustrates that fendiline HCl inhibits Raf kinase activity and signaling downstream of oncogenic K-ras: BHK cells stably expressing K-rasG12V were treated with vehicle or fendiline HCl (6 μg/mL) for 48 h. (A) Raf kinase activity in membrane fractions prepared from the cells was measured in a coupled […] kinase assay. Data is shown as mean±SEM from 3 independent experiments. (B) ppMEK and ppERK in soluble protein fraction and pAkt levels in membrane protein fraction were measured by quantitative Western blotting. Actin and Akt were used as loading controls for soluble and membrane fractions, respectively. A representative blots are shown. Data is shown as mean±SEM from 3-4 independent experiments. Statistical significance was calculated using one way ANOVA and Student's T-test. (*=p<0.05), wherein experimentation was performed in accordance with principles described herein;\nas §1, §2"}, "[5]": {"molecular_target": "T2, mGFP-tagged K-rasG12V in BHK cells (Homo sapiens, UniProt P01116, G12V)", "T2 construct": "BHK cells expressing GFP-tagged full length constitutively active Ras (G12V) proteins; expressed in transfected cells", "experiment": "Immuno-electron microscopy and spatial analysis of plasma membrane sheets, K-rasG12V", "type": "cell-based, hamster", "settings": "6 μg/mL, 48 h", "description": "as §3, §4"}}, "note": "Where a name gives a salt, the structure may show the parent alone."}
{"compound": "CC(NCCC(c1ccccc1)c1ccccc1)c1ccccc1", "note": "(centres unmarked) [fendiline HCl]", "values": [{"measurement": "pAkt levels", "setting": "[1]", "result": "decreased"}, {"measurement": "pERK levels", "setting": "[1]", "result": "decreased"}, {"measurement": "pMEK levels", "setting": "[1]", "result": "decreased"}, {"measurement": "clustering of H-rasG12V on plasma membrane", "setting": "[2]", "result": "reduced clustering of both K- and H-rasG12V proteins"}, {"measurement": "membrane association of H-rasG12V (EM gold labeling)", "setting": "[2]", "result": "slightly increases membrane association of H-rasG12V"}, {"measurement": "intracellular Ca2+", "setting": "[3]", "result": "increase intracellular Ca^2+"}, {"measurement": "pAkt levels", "setting": "[4]; membrane fraction", "result": "decreases the pAkt levels, although not statistically significant"}, {"measurement": "cellular levels of pERK", "setting": "[4]; vs vehicle", "result": "significantly reduces"}, {"measurement": "cellular levels of pMEK", "setting": "[4]; vs vehicle", "result": "significantly reduces"}, {"measurement": "clustering of K-rasG12V on plasma membrane", "setting": "[5]", "result": "reduced clustering of both K- and H-rasG12V proteins"}, {"measurement": "plasma membrane associated K-rasG12V (EM gold labeling)", "setting": "[5]", "result": "reduces the plasma membrane associated K-rasG12V"}]}
